# Experimental data as given in patent publication US20170290871A1, “METHOD OF TREATING HYPERTENSION” (KING SAUD UNIVERSITY, priority 2016, published 2017).
# Key:
# Assay type in all cases: in vivo, Sprague-Dawley rats
# [1] = tested on: hypertension induced rats; experiment: Blood pressure and heart rate of salt-sucrose hypertension induced rats; details: captopril 20 mg/kg daily for three weeks, mean ± SD of 6
# Experimental: (§1) Male Sprague-Dawley rats were divided into nine groups of six rats each and treated daily for three consecutive weeks. High salt-sucrose solution was given to the rats to induce hypertension in them. […] At the end of the experimental period, arterial blood pressure and heart rate of all rats were recorded. The rats were sacrificed by decapitation and the free running blood was collected for analysis. The systolic blood pressure (SBP), the diastolic blood pressure (DBP) and the heart rate (HR) of the rats were measured by the tail cuff every day during the entire period of study in control, drug and extract treated animals.
# [2] = tested on: hypertension induced rats; experiment: Serum marker enzymes (AST, ALT, ALP) of hypertension induced rats
# Experimental: as §1, with “animals. For the estimation of alanine transaminase (ALT), aspartate transaminase (AST), alkaline phosphatase (ALP), total cholesterol, triglycerides, low-density lipoprotein (LDL) and high density lipoprotein (HDL), blood samples were collected in clot activator gel tubes. The serum was separated by centrifuging the blood samples at 5000 rpm for 10 minutes. Serum biochemical parameters were then measured by using commercially available reagent kits.” for “animals.”
# [3] = tested on: hypertension induced rats; experiment: Plasma lipid profile of hypertension induced rats; details: captopril 20 mg/kg daily for three weeks, mean ± SD of 6
# Experimental: as §1, with “animals. For the estimation of alanine transaminase (ALT), aspartate transaminase (AST), alkaline phosphatase (ALP), total cholesterol, triglycerides, low-density lipoprotein (LDL) and high density lipoprotein (HDL), blood samples were collected in clot activator gel tubes. The serum was separated by centrifuging the blood samples at 5000 rpm for 10 minutes. Serum biochemical parameters were then measured by using commercially available reagent kits.” for “animals.”
# [4] = tested on: hypertension induced rats; experiment: GSH and SOD in tissue homogenates (liver, heart, kidney) of hypertension induced rats
# Experimental: as §1, with “animals. After collecting the blood samples from the rats, their abdominal cavity was opened; heart, liver and kidney were dissected out and homogenized in Tris-HCl buffer solution to make a 20% homogenate. Glutathione (GSH) and superoxide dismutase (SOD) were determined using the method described by Ellman & Misra for assessing the oxidative damage parameters in some organs.” for “animals.”
# [5] = serum, captopril 20 mg/kg daily for three weeks, mean ± SD of 6
# [6] = heart homogenate, captopril 20 mg/kg, mean ± SD of 6
# [7] = kidney homogenate, captopril 20 mg/kg, mean ± SD of 6
# [8] = liver homogenate, captopril 20 mg/kg, mean ± SD of 6
structure (smiles),measurement,setting,value
"C[C@H](CS)C(=O)N1CCC[C@H]1C(=O)O [Captopril, captopril]",Diastolic BP,[1],95.56 ± 10.5a* mm Hg
same,Heart rate,[1],328.86 ± 36.14a* beats/min
same,Systolic BP,[1],121.45 ± 10.9a* mm Hg
same,"levels of AST, ALT, ALP and lipid profile, in words",[2],brought back significantly to near normal
same,ALP,[2]; [5],132.12 ± 17.41a* IU/L
same,ALT,[2]; [5],85.44 ± 10.33a* IU/L
same,AST,[2]; [5],45.03 ± 5.44a* IU/L
same,CHOLESTEROL,[3],135.42 ± 13.41a* mg/dL
same,HDL,[3],41.46 ± 4.55a* mg/dL
same,LDL,[3],89.23 ± 9.8a* mg/dL
same,TRIGLYCERIDES,[3],106.41 ± 9.52a* mg/dL
same,Heart GSH,[4]; [6],38.78 ± 4.69a^ mM/L
same,Heart SOD,[4]; [6],68.92 ± 9.08a^@ U/mg
same,Kidney GSH,[4]; [7],31.04 ± 2.78a^@ mM/L
same,Kidney SOD,[4]; [7],67.96 ± 6.08a^@ U/mg
same,Liver GSH,[4]; [8],28.92 ± 4.12a^ mM/L
same,Liver SOD,[4]; [8],42.67 ± 5.62a^ U/mg
same,"levels of enzymic antioxidants, in words",[4]; tissue homogenates,retained to near normal values significantly
